The values that follow come from patent US20080206175A1, “Composition for Skin Whitening and Wrinkle Improvement Comprising Vaccinium Uliginosum Extract and Method for Preparation Thereof” (priority 2005, published 2008).

Structures are written as SMILES.

The test system of experiment [1] is B16 melanoma F10 cells. The experiment in a line: Inhibitory effect on melanin production in B16 melanoma F10 cells. The conditions noted are these: 10 μM, 72 hours. Format: cell-based. How it is done:
B 16 melanoma F 10 cells were seeded into each well of a 24-well plate at a cell concentration of 10^4 cells/well. After 17 hours, the adhesion of the cells was confirmed and the medium was removed. […] The plate was incubated in a CO2 incubator for 72 hours and then the medium was removed. Next, 2 ml of NaOH was added into each well of the plate, followed by standing at 60° C. for 30 minutes. Then, the cell solution was measured for absorbance at 450 nm. The concentration of melanin was calculated compared to the melanin standard curve.

Experiment [2] deals with B16 melanoma F10 cells. The experiment in a line: Inhibitory effect on total melanin production upon ultraviolet irradiation, B16 melanoma F10 cells. Format: cell-based.

The compound `O=c1cc(CO)occ1O` [kojic acid] registered a production of melanin in the experiment on B16 melanoma F10 cells [1] of 16.54 µg/mL. For the same compound, the “melanin production upon ultraviolet irradiation” value with B16 melanoma F10 cells [2] (0.2 μM) is 22.72 µg/mL; with B16 melanoma F10 cells [2] (2 μM), 19.22 µg/mL.
